Test results published in patent EP3409671B1, “ISOTHIAZOLE DERIVATIVES AS GPR120 AGONISTS FOR THE TREATMENT OF TYPE II DIABETES” (Janssen Pharmaceutica NV, priority 2014, dated 2015).

Columns and labels:
[1] = biological target: T1, short form of the GPR120 receptor (Homo sapiens, UniProt Q5NUL3); experiment: Human GPR120 DiscoveRx PathHunter Beta-Arrestin assay, Procedure β-arrestin B; assay type: cell-based; conditions: PathHunter CHO-K1 GPR120S β-Arrestin Cell Line, 5000 cells/well, read-out: hGPR120 β-arrestin B EC50
T1 construct: host or cells: PathHunter CHO-K1 GPR120S β-Arrestin Cell Line
T1 sequence (Q5NUL3 1-361): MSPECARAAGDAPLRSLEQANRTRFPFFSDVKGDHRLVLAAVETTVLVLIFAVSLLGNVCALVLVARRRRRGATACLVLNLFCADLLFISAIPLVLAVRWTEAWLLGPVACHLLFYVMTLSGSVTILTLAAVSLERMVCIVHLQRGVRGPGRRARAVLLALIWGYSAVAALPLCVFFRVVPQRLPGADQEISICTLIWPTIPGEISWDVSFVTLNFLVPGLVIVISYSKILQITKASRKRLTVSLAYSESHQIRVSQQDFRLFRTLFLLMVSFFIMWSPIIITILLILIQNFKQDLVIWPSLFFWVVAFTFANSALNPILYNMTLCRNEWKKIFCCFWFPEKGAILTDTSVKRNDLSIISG
From the text: The binding of an agonist (medium/long chain fatty acids or small molecule agonists) to the G-protein-coupled receptor GPR120 activates phospholipase C, leading to release of intracellular Ca^+2 through the generation of inositol 1,4,5-trisphosphate (InsP3 or IP3). GPR120 activation can also trigger intracellular signaling via recruitment of Beta-Arrestin. In the present method, agonist-induced activation of the human GPR120 receptor is monitored through the use of PathHunter CHO-K1 GPR120 Beta-Arrestin Cell Line engineered by DiscoveRx, as detailed below. The cell lines are designed to co-express both the ProLink/Enzyme Donor (PK)-tagged GPCR and the Enzyme […] (EA)-tagged Beta-Arrestin fusion proteins. Upon GPR120 receptor stimulation / activation, the EA-tagged Beta-Arrestin portion is translocated to the tagged receptor, where the two enzyme fragments are brought within close proximity.
Under these conditions, these fragments can interact and form an active Beta-gal enzyme complex through Enzyme Fragment Complementation (EFC). This active Beta-gal complex can enzymatically hydrolyse the substrate to produce a detectable light signal; therefore, activation as a function of agonist concentration can be expressed as an EC50 value to determine relative compound activities. This in vitro assay therefore serves to assess compound agonist activity of the GPR120.
In Procedure β-arrestin B the cells used were PathHunter CHO-K1 GPR120S β-Arrestin Cell Line, expressing the short form of the GPR120 receptor (Accession #NM_181745), with 5000 cells/well. […]
The plates were read on an EnVision instrument, using Protocol name: Luminescence, Plate type: 384 Costar, Measurement height: 3 mm, Measurement time: 1s, Aperture: 384 Plate aperture. The %activity relative to the positive control was calculated using the following equation: %Activity = (Countcompound −Countvehicle)/(Countpostivite control −Countvehicle) × 100% [formula] […]

Human GPR120 short form = biological target: T2, Human GPR120 short form (Homo sapiens, UniProt Q5NUL3); experiment: Human GPR120 Calcium Flux Assay, Procedure Calcium B; assay type: cell-based; conditions: HEK-293 cells expressing Human GPR120 short form, FLIPR, 4200 cells/well; read-out: GPR120 Ca^2+ Assay B EC50
T2 construct: expressed in transfected cells
T2 sequence (Q5NUL3 1-361): T1 sequence (Q5NUL3 1-361)
From the text: This in vitro assay serves to assess test compound agonist activity against the short splice variant (SVS with Accession number NM_001195755.1 confirmed by sequencing data) of the GPR120 receptor. The Human Short splice variant #2 (NM_001195755.1) is missing an in-frame coding exon compared to variant 1 (the Human Long splice variant NM_181745.3), resulting in a shorter isoform (GPR120-S) lacking a 16 aa protein segment compared to isoform GPR120-L. The assay platform utilizes HEK-293 cells stably transfected to express the Human GPR120 short form. These cells are first loaded with the Ca^+2 sensitive dye, Fluo-4 NW. Upon stimulation, intracellular released Ca^+2 can bind to the dye and alter its fluorescence intensity. This increase in fluorescence signal, and thus the flux in intracellular [Ca^2+], is detected and quantitated by fluorescence imaging using a FLIPR reader. The effect of the agonist is measured as a function of concentration and used to calculate an EC50 based upon a response curve.
In this procedure 4200 cells/well were employed.
A Human GPR120 clone (Genbank accession number NM _001195755.1) was placed into the pcDNA3.1 mammalian expression vector carrying the neomycin resistance gene. A stable mammalian cell was generated by placing the above clone into a HEK293 background. Clonal cells responding to long chain fatty acids had expression levels of GPR120 confirmed by RT-qPCR. Human HEK-GPR120 cells were cultured in Dulbecco's Modified Eagle's Medium (DMEM)/F12 medium supplemented with 10% fetal bovine serum (FBS), 1% L-Glutamine and 1% penicillin/streptomycin and 0.5 mg/ml G-418. Cells were split 2 times a week to keep the cells in the log-phase growth.
In preparation for the assay, HEK cells stably transfected with Human GPR120 (2.5K cells per well in 25uL growth medium) were seeded into 384-well plates and then incubated overnight (37°C, 5% CO2). The next day, the media was changed to 20 µL assay buffer and the cell starved for 1h at 37°C. […]
The assay was performed on a FLIPR plate reader using the following parameters. Baseline was read for 10 seconds at 1 sec intervals. The program was set to transfer 10µL of ligand from compound plate to cell plate after baseline reading. […] After compound addition, each well was read for 300 sec, with measurements collected at 1 sec intervals.
The kinetic data from the FLIPR was based upon a 5 minute window for data collection. The fluorescence of each sample well was used for individual calculations of a normalized RFU value, which was defined as maximum response minus the minimum response. The normalized fluorescence reading (RFU) was calculated as follows: RFU = Fmax−Fmin [formula] […]

For `COc1cnc(-c2nsc(C(F)(F)F)c2COc2c(F)cc(CCC(=O)O)cc2F)s1` [Cpd 267, 3-(3,5-difluoro-4-((3-(5-methoxythiazol-2-yl)-5-(trifluoromethyl)isothiazol-4-yl)methoxy)phenyl)propanoic acid], the EC50 [1] was 526 nM and the EC50 (Human GPR120 short form) was 274 nM.

`COc1cnc(-c2nsc(C(F)(F)F)c2COc2ccc(CCC(=O)O)c(C)c2C)s1` [Cpd 268, 3-(4-((3-(5-methoxythiazol-2-yl)-5-(trifluoromethyl)isothiazol-4-yl)methoxy)-2,3-dimethylphenyl)propanoic acid] was tested, and the EC50 [1] was 445 nM and the EC50 (Human GPR120 short form) was 473 nM.

With `Cc1c(CCC(=O)O)ccc(OCc2c(-c3ncc(Cl)s3)nsc2C(F)(F)F)c1C` [Cpd 269, 3-(4-((3-(5-chlorothiazol-2-yl)-5-(trifluoromethyl)isothiazol-4-yl)methoxy)-2,3-dimethylphenyl)propanoic acid] the EC50 [1] was 676 nM and the EC50 (Human GPR120 short form) was 194 nM.
